Measured values published in patent US11090304B2 (Amgen Inc., priority 2018, dated 2021).
Like-named read-outs stand apart in the source and are kept apart here.

What was measured:
[1] = molecular target: GDP-bound KRAS protein (aa 1-169), containing both G12C and C118A amino acid substitutions (Homo sapiens, UniProt P01116, C118A/G12C); test: Coupled nucleotide exchange assay (SOS-mediated, AlphaScreen); type: biochemical; details: for Coupled exchange IC50 (5 min) / IC50: 5 min compound pre-incubation; for Coupled exchange IC50 (2 h): 2 h compound pre-incubation; for IC50: read-out: Coupled exchange IC50 (5 min)
GDP-bound KRAS protein (aa 1-169), containing both G12C and C118A amino acid substitutions, sequence (P01116 1-169 isoform P01116-2 G12C/C118A): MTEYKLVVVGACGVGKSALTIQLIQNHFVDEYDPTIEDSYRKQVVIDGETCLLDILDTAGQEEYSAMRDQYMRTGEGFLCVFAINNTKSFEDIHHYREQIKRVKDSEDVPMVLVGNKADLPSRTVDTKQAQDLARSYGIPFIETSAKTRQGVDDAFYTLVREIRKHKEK

[2] = tested on: Phosphorylation of ERK1/2 in MIA PaCa-2 cells; test: Phospho-ERK1/2 MSD assay in MIA PaCa-2 cells; type: cell-based
In short: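 IC50 comes from a 4-parameter logistic fit of MSD phospho-ERK1/2 signal in lysates. Before lysis, MIA PaCa-2 or A549 cells were exposed to titrated compound for 2 or 4 h at 37 °C, followed by a 10 min 10 ng/mL EGF stimulus.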

[3] = tested on: Phosphorylation of ERK1/2 in A549 cells; test: Phospho-ERK1/2 MSD assay in A549 cells; type: cell-based; details: Homo sapiens
Method: For compounds in Table 89, the following assay conditions were employed:
Phospho-ERK1/2 MSD Assay:
Sixteen hours prior to compound treatment, MIA PaCa-2 or A549 cells were seeded in 96-well cell culture plates at a density of 25,000 cells/well and incubated at 37° C., 5% CO2. A compound dose-response titration was diluted in growth media, added to appropriate wells of a cell culture plate, and then incubated at 37° C., 5% CO2 for 2 or 4 hours (see Table 15). Following compound treatment, cells were stimulated with 10 ng/mL EGF (Roche 11376454001) for 10 min, washed with ice-cold Dulbecco's phosphate-buffered saline, no Ca^2+ or Mg^2+ (ThermoFisher Scientific 14190144), and then lysed in RIPA buffer (50 mM Tris-HCl pH 7.5, 1% Igepal, 0.5% sodium deoxycholate, 150 mM NaCl, and 0.5% sodium dodecyl sulfate) containing protease inhibitors (Roche 4693132001) and phosphatase inhibitors (Roche 4906837001). Phosphorylation of ERK1/2 in compound-treated lysates was assayed using Phospho-ERK1/2 Whole Cell Lysate kits (Meso Scale Discovery K151DWD) according to the manufacturer's protocol. Assay plates were read on a Meso Scale Discovery Sector Imager 6000, and data were analyzed using a 4-parameter logistic model to calculate IC50 values.

[4] = A549, 2 h, read-out: p-ERK IC50 (2 h; A549), 2 h compound treatment
[5] = Homo sapiens, MIA PaCa-2, 2 h, read-out: p-ERK IC50 (2 h; MIA PaCa-2), 2 h compound treatment
[6] = Homo sapiens, MIA PaCa-2, 4 h, read-out: p-ERK IC50 (4 h; MIA PaCa-2), 4 h compound treatment
[7] = A549, 4 h, read-out: p-ERK IC50 (4 h; A549), 4 h compound treatment

SMILES	Coupled exchange IC50 (5 min) [1]	IC50 ([2]; read-out: p-ERK IC50 (2 h; MIA PaCa-2), 2 h compound treatment)	IC50 [3, 4]	Coupled exchange IC50 (2 h) [1]	IC50 [2, 5]	IC50 [2, 6]	IC50 [3, 7]	IC50 [1]
C=CC(=O)N1CCN(c2nc(=O)n(-c3cccnc3C(C)C)c3nc(-c4ccccc4F)c(Cl)cc23)[C@@H](C)C1 (single isomer, unassigned) [Example 54-9-1]	0.302 | nda μM	76 nM	≥ 10000 nM					
C=CC(=O)N1CCN(c2nc(=O)n(-c3nccn3C(C)C)c3cc(-c4ccccc4F)c(Cl)cc23)[C@@H](C)C1 [Example 91, 6-Chloro-7-(2-fluorophenyl)-4-((2S)-2-methyl-4-(2-propenoyl)-1-piperazinyl)-1-(1-(2-propanyl)-1H-imidazol-2-yl)-2(1H)-quinazolinone]	0.2 | nda μM		≥ 10000 nM		312 nM			
C=CC(=O)N1CCN(c2nc(=O)n(-c3ccccc3C(C)C)c3nc(N4CCCCC4)c(Cl)cc23)[C@@H](C)C1 (single isomer, unassigned) [Example 69-1-2]	0.604 | nda μM		≥ 10000 nM		1020 nM			
C=CC(=O)N1CCN(c2nc(=O)n(-c3c(C)cccc3C)c3nc(-c4c(O)cccc4F)c(Cl)cc23)CC1 [Example 8-8, 6-chloro-1-(2,6-dimethylphenyl)-7-(2-fluoro-6-hydroxyphenyl)-4-(4-(2-propenoyl)-1-piperazinyl)pyrido[2,3-d]pyrimidin-2(1H)-one]	0.653 µM			117 nM	327 nM	143 nM	≥ 100000 nM	
C=CC(=O)N1CCN(c2nc(=O)n(-c3ncccc3C(C)C)c3nc(-c4c(O)cccc4F)c(Cl)cc23)[C@@H](C)C1 [Example 54-57, 6-chloro-7-(2-fluoro-6-hydroxyphenyl)-4-((2S)-2-methyl-4-(2-propenoyl)-1-piperazinyl)-1-(3-(2-propanyl)-2-pyridinyl) pyrido[2,3-d]pyrimidin-2(1H)-one]			≥ 10000 nM		53 nM			83 nM
C=CC(=O)N1CCN(c2nc(=O)n(-c3c(C)cccc3C)c3nc(-c4c(O)cccc4F)c(Cl)cc23)[C@@H](C)C1 [Example 54-69, 6-chloro-1-(2,6-dimethylphenyl)-7-(2-fluoro-6-hydroxyphenyl)-4-((2S)-2-methyl-4-(2-propenoyl)-1-piperazinyl) pyrido[2,3-d]pyrimidin-2(1H)-one]			≥ 10000 nM		199 nM			306 nM
CC(C)c1ccccc1-n1c(=O)nc(N2CCN(C(=O)/C=C/CN(C)C)CC2)c2cc(Cl)c(-c3c(O)cccc3F)cc21 [Example 92, 6-Chloro-4-(4-((2E)-4-(dimethylamino)-2-butenoyl)-1-piperazinyl)-7-(2-fluoro-6-hydroxyphenyl)-1-(2-(2-propanyl)phenyl)-2(1H)-quinazolinone]				nda | 0.123 μM		1550 nM	108000 nM	
C=CC(=O)N1CCN(c2nc(=O)n(CC(C)(C)C)c3cc(-c4c(O)cccc4F)c(Cl)cc23)CC1 [Example 89, 6-Chloro-1-(2,2-dimethylpropyl)-7-(2-fluoro-6-hydroxyphenyl)-4-(4-(2-propenoyl)-1-piperazinyl)-2(1H)-quinazolinone]			≥ 10000 nM		687 nM	294 nM	≥ 11100 nM	
C=CC(=O)N1CCN(c2nc(=O)n(-c3ccccc3C(C)C)c3cc(Br)c(Cl)cc23)[C@@H](C)C1 [Example 9-17]						1110 nM	74400 nM	

Now from value to molecule, other results behind:

Coupled exchange IC50 (5 min) [1]	IC50 ([2]; read-out: p-ERK IC50 (2 h; MIA PaCa-2), 2 h compound treatment)	IC50 [3, 4]	Coupled exchange IC50 (2 h) [1]	IC50 [2, 5]	IC50 [2, 6]	IC50 [3, 7]	SMILES	IC50 [1]
0.253 µM		≥ 10000 nM	54 nM	140 nM	133 nM	≥ 100000 nM	C=CC(=O)N1CCN(c2nc(=O)n(-c3c(CC)cccc3CC)c3nc(-c4c(F)cccc4F)c(Cl)cc23)[C@@H](C)C1 [Example 54-65, 6-chloro-1-(2,6-diethylphenyl)-7-(2,6-difluorophenyl)-4-((2S)-2-methyl-4-(2-propenoyl)-1-piperazinyl) pyrido[2,3-d]pyrimidin-2(1H)-one]	
0.824 | nda μM		≥ 10000 nM		453 nM			C=CC(=O)N1CCN(c2nc(=O)n(-c3c(Cl)cccc3Cl)c3nc(-c4ccccc4F)c(Cl)cc23)[C@@H](C)C1 [Example 54-30, 6-chloro-1-(2,6-dichlorophenyl)-7-(2-fluorophenyl)-4-((2S)-2-methyl-4-(2-propenoyl)-1-piperazinyl) pyrido[2,3-d]pyrimidin-2(1H)-one]	
0.686 | nda μM		≥ 10000 nM		492 nM			C=CC(=O)N1CCN(c2nc(=O)n(-c3ccccc3C)c3nc(-c4c(O)cccc4F)c(Cl)cc23)[C@@H](C)C1 [Example 60-15, 6-chloro-7-(2-fluoro-6-hydroxyphenyl)-1-(2-methylphenyl)-4-((2S)-2-methyl-4-(2-propenoyl)-1-piperazinyl)pyrido[2,3-d]pyrimidin-2(1H)-one]	
0.076 | nda μM		≥ 10000 nM		102 nM			C=CC(=O)N1CCN(c2nc(=O)n(-c3c(C)ccnc3C(C)C)c3nc(-c4ccccc4F)c(Cl)nc23)[C@@H](C)C1 (single isomer, unassigned) [Example 111-1]	
0.029 | nda μM		≥ 10000 nM		27 nM			C=CC(=O)N1C[C@H](C)N(c2nc(=O)n(-c3c(C)ccnc3C(C)C)c3nc(-c4c(O)cccc4F)c(F)cc23)[C@@H](C)C1 (single isomer, unassigned) [Example 75-3]	
2.24 | nda μM		≥ 10000 nM		946 nM			C=CC(=O)N1CCN(c2nc(=O)n(-c3ccccc3C)c3nc(-c4ccccc4F)c(Cl)cc23)[C@@H](C)C1 [Example 60-14, 6-chloro-7-(2-fluorophenyl)-1-(2-methylphenyl)-4-((2S)-2-methyl-4-(2-propenoyl)-1-piperazinyl)pyrido[2,3-d]pyrimidin-2(1H)-one]	
0.724 | nda μM		≥ 10000 nM		2900 nM			C=CC(=O)N1CCN(c2nc(=O)n(-c3c(C)cncc3C)c3nc(-c4c(O)cccc4F)c(Cl)cc23)[C@@H](C)C1 [Example 54-41, 6-chloro-1-(3,5-dimethyl-4-pyridinyl)-7-(2-fluoro-6-hydroxyphenyl)-4-((2S)-2-methyl-4-(2-propenoyl)-1-piperazinyl) pyrido[2,3-d]pyrimidin-2(1H)-one]	
0.991 | nda μM		≥ 10000 nM		450 nM			C=CC(=O)N1CCN(c2nc(=O)n(-c3ccccc3C(C)C)c3nc(-c4ccccc4F)c(F)cc23)[C@@H](C)C1 [Example 57-7, 6-fluoro-7-(2-fluorophenyl)-4-((2S)-2-methyl-4-(2-propenoyl)-1-piperazinyl)-1-(2-(2-propanyl)phenyl)pyrido[2,3-d]pyrimidin-2(1H)-one]	
		48900 nM		2250 nM			C=CC(=O)N1CCN(c2nc(=O)n(-c3c(CC)cccc3CC)c3nc(C4CCCC4)c(Cl)cc23)[C@@H](C)C1 [Example 54-4, 6~chloro-7-cyclopentyl-1-(2,6-diethylphenyl)-4-((2S)-2-methyl-4-(2-propenoyl)-1-piperazinyl) pyrido[2,3-d]pyrimidin-2(1H)-one]	
		≥ 33300 nM		90 nM			C=CC(=O)N1CCN(c2nc(=O)n(-c3ccccc3C(C)C)c3nc(-c4ccccc4F)c(Cl)cc23)[C@@H](C)C1 [Example 54-86, 6-chloro-7-(2-fluorophenyl)-4-((2S)-2-methyl-4-(2-propenoyl)-1-piperazinyl)-1-(2-(2-propanyl)phenyl)pyrido [2,3-d]pyrimidin-2(1H)-one]	
